# Counter-ions that a name gives are not always drawn. Like-named read-outs stand apart in the source and are kept apart here.
# Legend:
# [1] = assay type: physicochemical; conditions: water vapor sorption, typical laboratory humidity (55% RH)
# Method: Data are collected on a VTI SGA-100 moisture balance system. For sorption isotherms, a sorption range of about 0% to about 90% relative humidity (RH) and a desorption range of about 90 to about 0% RH in 10% RH increments are used for analysis. The samples are not dried prior to analysis. Equilibrium criteria used for analysis are less than 0.0100% weight change in 5 minutes with a maximum equilibration time of 3 hours if the weight criterion is not met. Data are not corrected for the initial moisture content of the samples.
# The amorphous material was placed into preset RH conditions (50% and 75% RH) for 24 hours to check dynamic moisture absorption as well as deliquescence.
# [2] = Solubility in simulated biological media; assay type: physicochemical; conditions: mean ± SD, n = 2
# Text: Solubility and Dissolution Rate Data.
# Solubility and Dissolution Rate Data. […]
# [3] = Intrinsic dissolution rate in simulated biological media; assay type: physicochemical
# Method: Intrinsic dissolution rate is determined at 37° C. using a Distek Dissolution System model 5100A with a sample size of approximately 200 mg (0.5 cm^2 disc) and 500 mL dissolution medium. The paddle speed is set to 500 rpm and the paddle height to approximately 2.54 cm above the disc surface. The concentration of sample in solution is determined by HPLC.
# [4] = Method: Stress Experiments. Solids are stressed under different temperature or relative humidity (RH) environments for a measured time period. Specific RH values are achieved by placing the sample inside sealed chambers containing saturated salt solutions, as known in the art. The salt solutions are selected and prepared following an ASTM standard procedure. Samples are analyzed by XRPD immediately after removal from the stress environment.
# Analyses are carried out on an Agilent® model 1100 high performance liquid chromatograph using gradient elution on a reversed phase column utilizing ultraviolet (UV) detection. Approximately 25 mg of the sample is weighed accurately and dissolved in methanol/water/trifluoroacetic acid (35:65:0.05) to a volume of 50 mL. The sample solution is analysed using the conditions specified below:
# The content of the drug and related substances are quantified by area (%).
# Chemical Stability. The chemical stability of Form I of the mono-HCl salt of Compound A1 was assessed by stressing the material at various temperature/relative humidity/light conditions, then analyzing by HPLC.
# Chemical Stability Data. The chemical stability of a sample of Form I of the sesquifumarate salt of Compound A1 was assessed by stressing the material at various temperature/relative humidity/light conditions, then analyzing by HPLC.
# [5] = Plasma exposure of efficacious doses in rodents; assay type: in vivo; conditions: separate tests of anxiolysis and antidepressant activity
# [6] = 0.1M phosphate buffer, initial pH 7.5
# [7] = FaSSIF (fasted-state simulated intestinal fluid), initial pH 6.51
# [8] = FeSSIF (fed-state simulated intestinal fluid), initial pH 5.03
# [9] = SGF (simulated gastric fluid), initial pH 1.3
# [10] = Ultraviolet light, 25° C./60% RH, 2x ICH (2 days), stored open
# [11] = Ultraviolet light, 25° C./60% RH, 3x ICH (3 days), stored open
# [12] = Ultraviolet light, 25° C./60% RH, ICH (1 day), stored open
# [13] = White light, 25° C./60%, ICH (7 days), stored open
compound,measurement,setting,value
"CCN(CC)C(=O)c1ccc([C@H](c2cccc(N)c2)N2CCN(Cc3ccc(F)cc3)CC2)cc1 [Form I of the sesquifumarate salt of Compound A1] [4-{(R)-(3-aminophenyl)[4-(4-fluorobenzyl)piperazin-1-yl]methyl}-N,N-diethylbenzamide]",moisture content at equilibrium,[1],approximately 4.5%
same,"Solubility, 3 hr",[2]; [6],180 µg/mL
same,"Solubility, 24 hr",[2]; [6],120 µg/mL
same,"Solubility, 3 hr",[2]; [7],4400 µg/mL
same,"Solubility, 24 hr",[2]; [7],4130 µg/mL
same,"Solubility, 3 hr",[2]; [8],2540 µg/mL
same,"Solubility, 24 hr",[2]; [8],2660 µg/mL
same,"Solubility, 3 hr",[2]; [9],17400 µg/mL
same,"Solubility, 24 hr",[2]; [9],17100 µg/mL
same,IDR (intrinsic dissolution rate),"[3]; FaSSIF, initial pH 6.51, mean ± SD, n = 2",553 μg/min/cm^2
same,IDR (intrinsic dissolution rate),"[3]; FaSSIF, initial pH 6.51, mean ± SD, n = 2, listed as Compound A1 Sesquifumarate Salt",553 ± 68.9 μg/min/cm^2
same,IDR (intrinsic dissolution rate),"[3]; FeSSIF, initial pH 5.03, mean ± SD, n = 2",33.5 μg/min/cm^2
same,IDR (intrinsic dissolution rate),"[3]; FeSSIF, initial pH 5.03, mean ± SD, n = 2, listed as Compound A1 Sesquifumarate Salt",33.5 ± 1.15 μg/min/cm^2
same,IDR (intrinsic dissolution rate),"[3]; SGF, initial pH 1.3",too soluble to permit determination of its IDR
same,% Purity (after challenge),"[4]; 25° C./60% RH, 7 days",99.6%
same,% Purity (reference material),"[4]; 25° C./60% RH, 7 days",104.0%
same,% Purity (after challenge),"[4]; 40° C./75% RH, 7 days",99.5%
same,% Purity (reference material),"[4]; 40° C./75% RH, 7 days",103.5%
same,"% Purity after 60° C./80% RH, 2 wks","[4]; 60° C./80% RH, 2 weeks, HPLC area %",86.5%
same,"% Purity after 60° C./80% RH, 4 wks","[4]; 60° C./80% RH, 4 weeks, HPLC area %",80.3%
same,"% Purity after 80° C., 2 wks","[4]; 80° C., 2 weeks, HPLC area %",91.8%
same,"% Purity after 80° C., 4 wks","[4]; 80° C., 4 weeks, HPLC area %",86.1%
same,% Purity (after challenge),"[4]; 80° C., 7 days",97.1%
same,% Purity (reference material),"[4]; 80° C., 7 days",99.8%
same,Purity after Photostability 3X ICH conditions,"[4]; Photostability 3X ICH conditions, HPLC area %",93.2%
same,% Purity (after challenge),"[4]; Reference, 0 days",99.6%
same,% Purity (reference material),"[4]; Reference, 0 days",100%
same,% Purity (after challenge),[4]; [10],99.6%
same,% Purity (reference material),[4]; [10],100.7%
same,% Purity (after challenge),[4]; [11],99.4%
same,% Purity (reference material),[4]; [11],100.9%
same,% Purity (after challenge),[4]; [12],99.5%
same,% Purity (reference material),[4]; [12],100.2%
same,% Purity (after challenge),[4]; [13],99.5%
same,% Purity (reference material),[4]; [13],101.7%
same,Initial Purity,"[4]; initial, before storage, HPLC area %",98.6%
same,mean plasma exposures produced by efficacious doses,[5],≥ 2 ng/mL
